Data published in patent US20130065227A1, “METHODS OF INCREASING MACROPINOCYTOSIS IN CANCER CELLS” (priority 2010, published 2013).

Experiments:
Hs27 cells = experiment: Uptake of fluorophore-labeled oligonucleotides by flow cytometry; type: cell-based, human; settings: 10 μM, 2 h
Procedure: FIG. 1 are graphs showing that AS1411 cell internalization is an active process. Cells were plated 18 h before uptake analysis. After incubation as described, cells were washed with ice-cold PBS, incubated with 1 μg/ml 7-AAD, harvested and resuspended in 1% paraformaldehyde containing 2 μg/ml actinomycin D, then analyzed by flow cytometry. (Panel A) DU145 cells were incubated at 37° C. with fresh complete DMEM medium containing 10 μM FL-AS1411 (black line) or 10 μM FL-CRO (gray line) for the time indicated. (Panel B) DU145 cells were incubated for 2 h at 37° C. in complete or serum-free DMEM medium containing 10 μM FL-AS1411, or 10 μM FL-CRO, or no oligonucleotide. (Panel C) Various cell lines were incubated with 10 μM FL-AS1411 (black outline histogram), 10 μM FL-CRO (gray outline histogram) or without DNA (solid gray histogram) at 37° C. or 4° C. for 2 h. All experiments were repeated at least three times. Data are mean of three independent samples; bars, SE; *(p<0.05).
(§1) FIG. 2 are graphs showing that AS1411 is internalized by different endocytic mechanisms in DU145 cancer cells and in non-malignant Hs27 cells. DU145 or Hs27 cells were plated 18 h before uptake analysis. Cells were pre-treated as described with inhibitor (gray histogram) or the corresponding vehicle control (black histogram) before addition of 10 μM FL-AS1411 and incubation at 37° C. for 2 h. After incubation, cells were harvested and analyzed by flow cytometry. Pre-treatment conditions were at 37° C. with: (Panel A) 5 μM Cytochalasin D for 30 min; (Panel B) 80 μM Dynasore for 30 min; or (Panel C) 3 mM amiloride for 1 h. All experiments were repeated at least three times and representative data are shown. Solid gray histograms represent background autofluorescence of unstained cells.
FIG. 9 are graphs showing the effects of inhibitors on various endocytic pathways. DU145 or Hs27 cells were plated 18 hr before uptake analysis. (Panel A) DU145 cells were pre-treated with dynamin inhibitor, […] Dynasore (black histogram) or DMSO (gray histogram) for 30 min at 37° C. After pre-treatment, cells were treated with […] transferrin conjugated with Alexa Fluor 488 for 30 min at 37° C. (Panel B) DU145 and Hs27 cells were pre-treated with 3 mM amiloride (black histogram) or vehicle (serum-free medium, gray histogram) for 1 h at 37° C. After pre-treatment, FL-CRO was added at a concentration of 10 μM and incubated at 37° C. for 2 h. After incubation, cells were harvested and analyzed by FACS. Gray solid histogram represents unstained cells.
To analyze uptake of the oligodeoxynucleotides or dextran-10K (macropinocytic marker) by flow cytometry, 2×10^5 cells in fresh supplemented culture medium (2.5 ml) were plated into 6-well plates for 18 h. […]

Hs27 [1] = experiment: Uptake of AS1411 by macropinocytosis (MP); type: cell-based, human; settings: Non-cancer, skin fibroblasts
Procedure: as §1
To analyze uptake of the oligodeoxynucleotides or dextran-10K (macropinocytic marker) by flow cytometry, 2×10^5 cells in fresh supplemented culture medium (2.5 ml) were plated into 6-well plates for 18 h. After complete adhesion, the cells were incubated with 5′-FAM tagged oligodeoxynucleotides or Alexa Fluor 488 tagged dextran-10K and incubated as indicated in the Description of the Drawings. Cells were washed once with ice-cold PBS, incubated with 1 μg/ml 7-amino-actinomycin D (7-AAD) for 5 min on ice or 1 μg/ml propidium iodide (PI), and washed twice with ice-cold PBS. […]

DU145 cells = type: cell-based; settings: 4 days, 10 μM AS1411
Procedure: DU145 cells were incubated for 4 days in the presence of 10 μM AS1411 with 3-MA at the concentration indicated, and cell number was assessed by MTT assay.
It also appears unlikely that AS1411-induced cell death is due to autophagy. […] Further evidence that supports the idea that AS1411 can induce methuosis comes from the similarity between the appearance of cells treated with AS1411 and published images of glioblastoma cells undergoing Ras-induced methuosis.

Hs27 [2] = experiment: Cell response to AS1411; type: cell-based, human; settings: Non-cancer, skin fibroblasts
Source text: (§2) It has recently been discovered that AS1411 can stimulate macropinocytosis (MP) in cancer cells and this finding was verified by several different methods and in multiple cancer cell lines (Table 1).

MCF10A = experiment: Cell response to AS1411; type: cell-based, human; settings: Non-cancer, breast epithelial
Source text: as §2

SK-N-DZ = experiment: Stimulation of macropinocytosis (dextran uptake); type: cell-based; settings: Cancer, neuroblastoma
Source text: as §2

CHO = experiment: Stimulation of macropinocytosis (dextran uptake); type: cell-based; settings: Non-cancer, hamster ovary
Source text: as §2

BEAS2B = experiment: Stimulation of macropinocytosis (dextran uptake); type: cell-based; settings: Non-cancer, lung epithelial
Source text: as §2

RCC4 = experiment: Stimulation of macropinocytosis (dextran uptake); type: cell-based; settings: Cancer, renal cell
Source text: as §2

A549 = experiment: Stimulation of macropinocytosis (dextran uptake); type: cell-based; settings: Cancer, non-small cell lung
Source text: as §2

RWPE1 = experiment: Stimulation of macropinocytosis (dextran uptake); type: cell-based; settings: Non-cancer, prostate epithelial
Source text: as §2

cancer cells = experiment: Stimulation of macropinocytosis / induced uptake; type: cell-based
Source text: A number of additional G-rich oligonucleotides were obtained and used to evaluate whether or not macropinocytosis was increased in cancer cells using the methodology described herein. For example, the following sequences were used:
In addition, the G-rich oligonucleotides disclosed in Dapic et al. (2003, Nuc. Acids Res.,31:2097 -107; KS-A though KS-I) and the G-rich oligonucleotides (e.g., telomere homologs, GT oligonucleotides, Stat3 binders, Dz13, and triplex oligonucleotides with aptameric effects) disclosed in Bates et al. (2009, Exp. Mol. Path., 86:151-64) and references therein are shown to stimulate macropinocytosis in cancer cells.
Furthermore, due to the unique properties of MPsomes, delivery by MP leads to increased functional activity. Thus, treatment with AS1411, followed by administration of an anticancer siRNA, for example, leads to a synergistic increase in anticancer effects without harming normal cells. Another strategy to potentiate the effects of AS1411 is to combine it with agents that promote MP and activation of Rac. This leads to increased macropinocytic uptake of AS1411 and/or enhanced methuosis.

**Q.** Which “uptake in Hs27 cells compared with cancer cells” value (Hs27 cells) does the source give for “5′-d(GGTGGTGGTGGTTGTGGTGGTGGTGG) [AS1411]” here?
**A.** The value was “higher uptake of AS1411 than any of the cancer cells analyzed”.

**Q.** What about the “Update by MP?” value (Hs27 [1]) of the same substance?
**A.** Its value is “No”.

**Q.** And the “effect in combination with 3-MA” value (DU145 cells)?
**A.** Its value is “additive”.

**Q.** And the “Cells respond?” value (Hs27 [2])?
**A.** Its value is “No”.

**Q.** And the “Cells respond?” value (MCF10A)?
**A.** Its value is “No”.

**Q.** And the “Stimulate MP?” value (SK-N-DZ)?
**A.** Its value is “Yes”.

**Q.** What about the “Stimulate MP?” value (CHO) of the same substance?
**A.** Its value is “No”.

**Q.** And the “Stimulate MP?” value (BEAS2B)?
**A.** The value was “No”.

**Q.** What about the “Stimulate MP?” value (RCC4) of the same substance?
**A.** Its value is “Yes”.

**Q.** What about the “Stimulate MP?” value (A549) of the same substance?
**A.** Its value is “Yes”.

**Q.** And the “Stimulate MP?” value (RWPE1)?
**A.** Its value is “No”.

**Q.** What about the “induced uptake from the culture medium after pre-treatment” value (cancer cells) of the same substance?
**A.** Its value is “induced uptake of dextran, AS1411, or transferrin (by MP)”.
